According to patent US12678512B2, “Anti-EGFR antibody-drug conjugate with a cyclic dinucleotide derivative” (DAIICHI SANKYO COMPANY, LIMITED, priority 2020, dated 2026):

Assays:
[1] = tested on: CT26.WT-chimeraEGFR cells subcutaneously transplanted in BALB/c mouse; experiment: Anti-tumor test (5); type: in vivo; conditions: 0.01 mg/kg into the tail vein once on Day 7, FIG. 24
Protocol: Then, the supernatant was collected, and the CT26.WT was infected therewith.
In addition, the vehicle group was provided in which acetate buffer was administered. The number of mice in each group was 8.

[2] = biological target: human STING (THP1-Dual cells, HAQ mutant; IRF3 pathway) (Homo sapiens, UniProt Q86WV6, G230A/H232R/R293Q/R71H); experiment: Reporter gene assay, human STING agonist activity in THP1-Dual cells
Protocol: Human STING agonist activity was evaluated using THP1-Dual™ cells (HAQ mutant) (InvivoGen, CA, US), in which activation of the interferon regulatory factor-3 (IRF3) pathway, which is downstream of the STING pathway, could be checked.
The assay was conducted as follows. First, each test compound diluted in PBS was dispensed at 20 μL/well of a transparent 96-well plate (Corning, NY, US). […] The cells were cultured for 24 h under conditions at 37° C. and 5% CO2, and then centrifuged to collect the supernatant. Next, 6 μL of the collected supernatant was added to a white 384-well plate, and 15 μL of QUANTI-Luc (InvivoGen) solution was added thereto. After well mixing, the luminescence was measured using a plate reader (PerkinElmer, MA, US).

[3] = tested on: mouse bone marrow-derived dendritic cells; experiment: Co-culture assay with CT26.WT or CT26.WT-hCD70 cell line and mouse bone marrow-derived dendritic cells; type: cell-based; conditions: conditions DC, 20 h incubation, FIG. 12
Description: CT26.WT (CRL2638), a mouse colon cancer cell line purchased from American Type Culture Collection, was transduced with human CD70 gene (NP_001243) to establish CT26.WT-hCD70 cells. Specifically, a pLVSIN lentiviral vector (Takara Bio), in which the human CD70 gene was inserted, was constructed. Next, Lenti-X293T cell line (Takara Bio) was transfected with the vector using a Lentiviral High Titer Packaging Mix (Takara Bio). Then, the supernatant was collected, and the CT26.WT was infected therewith. The cells were maintained in medium supplemented with 10 μg/mL puromycin (Thermo Fisher Scientific).
Mouse bone marrow cells were collected from the femur of 5-week-old female BALB/c mice (BALB/cAnNCrlCrlj) (Charles River, Japan). The mouse bone marrow cells were cultured in the presence of […] murine GM-CSF (PEPROTECH) for 7 days to obtain mouse bone marrow-derived dendritic cells. 1.5×10^5 CT26.WT or CT26.WT-hCD70 cell line cells and 1×10^5 mouse bone marrow-derived dendritic cells were seeded per well of a 96-well plate. Each test compound was diluted in RPMI medium (Invitrogen), and 200 μL was added. […] The cells were washed with FCM buffer again and analyzed using a Fortessa (BD Biosciences). MFI of CD86 in CD45^+, CD11c^+, and I-A/I-E^+ fraction was calculated. Then, the ratio with respect to the test compound-free group was calculated. […]

[4] = biological target: T1, mouse wild type (Ms-WT) STING C-terminal binding domain protein (Mus musculus, UniProt Q3TBT3); experiment: Protein thermal shift assay, STING binding; conditions: test compound final concentration 0.5 mM
T1 construct: made in house; host or cells: E. coli Rosetta 2 (DE3), co-expressed with BirA
Protocol: (§1) Each expression strain was added to TB broth containing 100 μg/mL ampicillin, 50 μg/mL streptomycin, and 30 μg/mL kanamycin, and cultured at 37° C. The expression was then induced with 100 μM IPTG, and the cells were further cultured at 16° C.
(§2) The culture broth was centrifuged, and the obtained bacteria were suspended in 50 mM HEPES pH8.0, 500 mM NaCl, 20 mM imidazole, 1 mM DTT, 5% (w/v) glycerol, and cOmplete EDTA free, and then frozen and thawed. After the addition of lysozyme and DNase I, the proteins were extracted by sonication, and the supernatant was collected by centrifugation. The resulting supernatant was purified through a HisTrap FF column (GE Healthcare) using an AKTAexpress chromatography system (GE Healthcare, IL, US), made to pass through a Superdex200 16/60 column (GE Healthcare), and eluted with a buffer (20 mM HEPES pH 7.5, 120 mM NaCl, 20% glycerol, 0.8 mM DTT). […] The protein concentration was measured using a Nanodrop 2000 (Thermo Fisher Scientific, MA, US), and each protein was frozen and stored at −80° C. until use.
(§3) The binding of a compound to each STING C-terminal binding domain protein was determined by the protein thermal shift assay, which uses the increase in the thermal denaturation temperature of the protein as an indicator.
(§4) Specifically, an assay buffer (20 mM Tris-HCl pH7.5, 120 mM NaCl) was applied to wells of a 384-well real-time PCR plate. Next, 3 μL of each test compound (final concentration 0.5 mM), 3 μL of SYPRO Orange Protein Gel Stain (Thermo Fisher Scientific) (final concentration: 20× concentration), and 6 μL of the STING protein were mixed in each well while using a plate shaker. A real-time PCR system (Thermo Fisher Scientific) was used to increase the temperature from 25° C. to 95° C. at a rate of 0.03° C. per second, and the thermal denaturation temperature of the protein was measured using the fluorescence emitted by SYPRO Orange as an indicator. The measured values were analyzed using Protein Thermal Shift software (Thermo Fisher Scientific) to determine Tm (the midpoint of the unfolding transition) (° C.) as the temperature at which the rate of increase in fluorescence intensity reached its maximum value. The shift of Tm by the test compound was calculated as ΔTm (° C.) by subtracting, from the Tm value of each compound, the Tm value of the well without the compound.

[5] = biological target: T2, human HAQ mutant (Hu-HAQ) STING C-terminal binding domain protein (Homo sapiens, UniProt Q86WV6, G230A/H232R/R293Q); experiment: Protein thermal shift assay, STING binding; conditions: test compound final concentration 0.5 mM
T2 construct: made in house; host or cells: E. coli Rosetta 2 (DE3), co-expressed with BirA
Protocol: as §1, §2, §3, §4

[6] = biological target: T3, human REF mutant (Hu-REF) STING C-terminal binding domain protein (Homo sapiens, UniProt Q86WV6); experiment: Protein thermal shift assay, STING binding; conditions: test compound final concentration 0.5 mM
T3 construct: made in house; host or cells: E. coli Rosetta 2 (DE3), co-expressed with BirA
Protocol: as §1, §2, §3, §4

[7] = biological target: T4, human wild-type (Hu-WT) STING C-terminal binding domain protein (Homo sapiens, UniProt Q86WV6, H232R); experiment: Protein thermal shift assay, STING binding; conditions: test compound final concentration 0.5 mM
T4 construct: made in house; host or cells: E. coli Rosetta 2 (DE3), co-expressed with BirA
Protocol: as §1, §2, §3, §4

[8] = tested on: CT26.WT-hEGFR cells subcutaneously transplanted in BALB/c mouse; experiment: Anti-tumor test (2); type: in vivo; conditions: 1.5 mg/kg into the tail vein once on Day 12, FIG. 15
Description: CT26.WT (CRL2638), a mouse colon cancer cell line purchased from American Type Culture Collection, was transduced with the human EGFR gene (NP_005219.2) to establish CT26.WT-hEGFR cells. Specifically, a pLVSIN lentiviral vector (Takara Bio), in which the human EGFR gene was inserted, was constructed. Next, Lenti-X293T cell line (Takara Bio) was transfected with the vector using a Lentiviral High Titer Packaging Mix (Takara Bio). Then, the supernatant was collected, and the CT26.WT was infected therewith. The cells were maintained in medium supplemented with 10 μg/mL puromycin (Thermo Fisher Scientific).
CT26.WT-hEGFR cells were suspended in saline. Ne×t, 3×10^6 cells were transplanted subcutaneously into the right axillary region of each BALB/c mouse (Day 0), and random grouping was conducted after 12 days. […] In addition, the vehicle group was provided in which acetate buffer was administered. The number of mice in each group was 8.

Chain of human STING (THP1-Dual cells, HAQ mutant; IRF3 pathway) (Q86WV6 whole entry R71H/G230A/H232R/R293Q): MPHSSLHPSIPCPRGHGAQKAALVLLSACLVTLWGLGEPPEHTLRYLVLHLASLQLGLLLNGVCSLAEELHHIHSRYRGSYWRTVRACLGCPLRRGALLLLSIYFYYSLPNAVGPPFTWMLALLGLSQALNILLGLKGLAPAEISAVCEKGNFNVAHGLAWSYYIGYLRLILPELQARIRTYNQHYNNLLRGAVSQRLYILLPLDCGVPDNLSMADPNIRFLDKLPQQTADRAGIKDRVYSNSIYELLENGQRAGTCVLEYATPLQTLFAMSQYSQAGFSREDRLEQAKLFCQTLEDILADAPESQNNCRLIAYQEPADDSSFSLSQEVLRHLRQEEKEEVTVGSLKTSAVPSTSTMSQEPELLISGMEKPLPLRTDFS
T1 sequence (Q3TBT3 with tags, fused parts or gaps): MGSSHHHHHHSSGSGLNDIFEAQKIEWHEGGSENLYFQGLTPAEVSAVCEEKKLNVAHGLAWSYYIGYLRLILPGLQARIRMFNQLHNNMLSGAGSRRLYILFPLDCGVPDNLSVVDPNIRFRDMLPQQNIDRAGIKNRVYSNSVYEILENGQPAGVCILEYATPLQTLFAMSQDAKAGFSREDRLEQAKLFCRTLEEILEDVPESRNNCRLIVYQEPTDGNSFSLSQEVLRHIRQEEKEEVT
T3 sequence (Q86WV6 with tags, fused parts or gaps, change not shown): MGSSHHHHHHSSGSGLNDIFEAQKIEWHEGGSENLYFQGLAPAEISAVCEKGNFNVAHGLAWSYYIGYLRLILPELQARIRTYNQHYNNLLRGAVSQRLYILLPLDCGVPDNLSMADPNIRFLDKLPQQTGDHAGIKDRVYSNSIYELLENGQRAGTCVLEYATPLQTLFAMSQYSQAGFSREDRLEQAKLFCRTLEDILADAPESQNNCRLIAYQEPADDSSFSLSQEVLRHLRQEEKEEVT
T2 sequence (Q86WV6 with tags, fused parts or gaps G230A/H232R/R293Q): as the sequence (Q86WV6 with tags, fused parts or gaps, change not shown) above, with G131A, H133R, R194Q counted along it
T4 sequence (Q86WV6 with tags, fused parts or gaps H232R): as the sequence (Q86WV6 with tags, fused parts or gaps, change not shown) above, with H133R counted along it

Row | EC50 [2] [µM] | ΔTm at 500 µM [4] [°C] | ΔTm at 500 µM [5] [°C] | ΔTm at 500 µM [6] [°C] | ΔTm at 500 µM [7] [°C] | Compound | tumor growth (tumor volume) [1] | CD86 expression on mouse dendritic cells (ratio of MFI with respect to the compound-free group) [3] | tumor growth (tumor volume) [8]
1 | 0.2 | – | – | – | – | O=c1c2ncn([C@@H]3O[C@@H]4COP(=O)(S)O[C@H]5[C@@H](F)[C@H](n6cc7c8c(ncnc86)NCCC7)O[C@@H]5COP(=O)(S)O[C@@H]3[C@@H]4O)c2ncn1CCO (single isomer, unassigned) [Compound 34a] | tumor growth was not inhibited | caused an increase in CD86 expression on mouse dendritic cells in all conditions | –
2 | – | 7.4 | 15.3 | 6.3 | – | O=C(CO)NCCn1cnc2c(ncn2[C@@H]2O[C@@H]3COP(=O)(S)O[C@H]4[C@@H](F)[C@H](n5cc6c7c(ncnc75)SCCC6)O[C@@H]4COP(=O)(S)O[C@@H]2[C@@H]3O)c1=O (single isomer, unassigned) [Compound 50b] | – | – | –
3 | 2.1 | 12.9 | 11.3 | 3.4 | 8.4 | O=c1c2ncn([C@@H]3O[C@@H]4COP(=O)(S)O[C@H]5[C@@H](O)[C@H](n6cc7c8c(ncnc86)NCCC7)O[C@@H]5COP(=O)(S)O[C@@H]3[C@@H]4O)c2ncn1CCO (single isomer, unassigned) [Compound 6b] | – | – | –
4 | – | – | – | – | – | anti-EGFR antibody 1: IgG1 isotype with LALA mutation, produced with reference to the Vectibix review report; light chain SEQ ID NO: 9, heavy chain SEQ ID NO: 10 | – | – | tumor growth was not inhibited
